The source of these data is patent US7718686B2, “Imidazole variants as modulators of GABA receptor for the treatment of GI disorders” (AstraZeneca AB, priority 2004, dated 2010).

The structures appear in SMILES notation.

In this experiment the target is T1, GABAB receptor (Homo sapiens, UniProt O75899+Q9UBS5).
T1 construct: expressed in transfected cells; host or cells: CHO-K1 (membranes)
In words: [35S]-GTPγS binding assay with GABA in the presence or absence of PAM. It is filed as biochemical. The settings on record: log EC50 for GABA plotted against log concentration of the positive allosteric modulator; read-out: EC50 (potency of the positive allosteric modulator). The method, then: [^35S]-GTPγS binding assays were performed at 30° C. for 45 min in membrane buffer (100 mM NaCl, 5 mM MgCl2, 1 mM EDTA, 50 mM HEPES, pH 7.4) containing 0.025 μg/μl of membrane protein (prepared from the cell lines described above) with 0.01% bovine serum albumin (fatty acid free), 10 μM GDP, 100 μM DTT and 0.53 nM [^35S]-GTPγS (Amersham-Pharmacia Biotech) in a final volume of 200 μl. Non-specific binding was determined in the presence of 20 μM GTPγS. The reaction was started by the addition of GABA at concentration between 1 mM and 0.1 mM in the presence or absence of the required concentration of PAM. The reaction was terminated by addition of ice-cold wash buffer (50 mM Tris-HCl, 5 mM MgCl2, 50 mM NaCl, pH 7.4) followed by rapid filtration under vacuum through Printed Filtermat A glass fiber filters (Wallac) (0.05% PEI treated) using a Micro 96 Harvester (Skatron Instruments). The filters were dried for 30 min at 50° C., then a paraffin scintillant pad was melted onto the filters and the bound radioactivity was determined using a 1450 Microbeta Trilux (Wallac) scintillation counter.
GABA dose-response curves in the presence and absence of test compounds were constructed using the 4-parameter logistic equation, y=ymax+((ymin−ymax)/1+(x/C)^D) where C=EC50 and D=slope factor.
The potency of PAM in GTPγS assays was determined by plotting the log EC50 for GABA against the log concentration of the positive allosteric modulator in the presence of which the measurement was performed.

T1 sequence (Q9UBS5 15-961 limits assumed): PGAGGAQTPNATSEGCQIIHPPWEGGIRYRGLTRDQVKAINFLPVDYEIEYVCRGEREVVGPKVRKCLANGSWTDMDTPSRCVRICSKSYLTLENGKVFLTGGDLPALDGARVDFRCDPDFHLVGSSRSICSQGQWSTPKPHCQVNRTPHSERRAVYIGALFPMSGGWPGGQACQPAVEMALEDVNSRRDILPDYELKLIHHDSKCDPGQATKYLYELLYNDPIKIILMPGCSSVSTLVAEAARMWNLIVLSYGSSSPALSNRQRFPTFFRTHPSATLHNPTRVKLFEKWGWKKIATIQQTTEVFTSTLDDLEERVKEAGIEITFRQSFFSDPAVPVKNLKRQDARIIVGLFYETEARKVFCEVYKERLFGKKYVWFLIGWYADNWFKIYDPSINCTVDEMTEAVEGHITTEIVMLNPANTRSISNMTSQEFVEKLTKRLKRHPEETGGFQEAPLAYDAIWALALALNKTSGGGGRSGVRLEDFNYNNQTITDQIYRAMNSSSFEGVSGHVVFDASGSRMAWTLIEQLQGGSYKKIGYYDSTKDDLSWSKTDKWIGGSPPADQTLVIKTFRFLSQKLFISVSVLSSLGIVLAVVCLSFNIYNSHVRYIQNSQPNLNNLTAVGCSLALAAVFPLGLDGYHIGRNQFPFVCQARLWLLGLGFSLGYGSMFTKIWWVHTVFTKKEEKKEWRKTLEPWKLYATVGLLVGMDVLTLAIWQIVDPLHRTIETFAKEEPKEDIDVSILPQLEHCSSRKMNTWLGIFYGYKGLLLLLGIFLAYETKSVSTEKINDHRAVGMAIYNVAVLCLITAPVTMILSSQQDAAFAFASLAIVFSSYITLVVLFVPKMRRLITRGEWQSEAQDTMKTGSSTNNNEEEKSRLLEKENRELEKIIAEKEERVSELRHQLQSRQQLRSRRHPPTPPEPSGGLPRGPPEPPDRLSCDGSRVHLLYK
T1 sequence (O75899 42-941): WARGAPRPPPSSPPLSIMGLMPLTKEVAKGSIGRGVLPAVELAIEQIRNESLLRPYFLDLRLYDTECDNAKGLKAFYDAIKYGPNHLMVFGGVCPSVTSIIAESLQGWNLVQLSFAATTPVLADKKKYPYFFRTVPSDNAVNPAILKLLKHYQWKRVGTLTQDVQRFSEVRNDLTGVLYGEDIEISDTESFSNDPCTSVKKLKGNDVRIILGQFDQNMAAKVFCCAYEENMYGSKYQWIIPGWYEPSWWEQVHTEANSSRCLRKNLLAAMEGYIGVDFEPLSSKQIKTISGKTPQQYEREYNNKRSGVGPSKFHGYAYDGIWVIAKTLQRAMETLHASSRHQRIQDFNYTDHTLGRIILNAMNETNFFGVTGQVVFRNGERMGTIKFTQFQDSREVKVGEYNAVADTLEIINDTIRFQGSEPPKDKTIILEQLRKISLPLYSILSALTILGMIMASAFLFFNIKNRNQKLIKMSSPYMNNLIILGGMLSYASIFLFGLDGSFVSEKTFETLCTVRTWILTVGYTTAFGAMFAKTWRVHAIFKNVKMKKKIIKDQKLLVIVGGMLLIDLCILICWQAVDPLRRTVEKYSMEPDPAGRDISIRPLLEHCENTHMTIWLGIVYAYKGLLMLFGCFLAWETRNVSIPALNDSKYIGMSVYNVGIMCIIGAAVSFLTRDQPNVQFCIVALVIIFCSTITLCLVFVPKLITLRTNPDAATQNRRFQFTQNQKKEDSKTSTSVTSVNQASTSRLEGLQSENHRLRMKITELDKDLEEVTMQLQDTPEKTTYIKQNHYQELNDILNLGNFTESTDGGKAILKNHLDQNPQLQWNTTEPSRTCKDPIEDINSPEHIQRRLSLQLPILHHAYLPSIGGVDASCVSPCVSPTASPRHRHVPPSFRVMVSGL

In the case of `CCCCC(C)(C)OC(=O)c1c(NC(=O)c2ccc(Cl)cc2)nc(SC)n1-c1ccccc1` [1,1-dimethylpentyl 4-[(4-chlorobenzoyl)amino]-2-(methylthio)-1-phenyl-1H-imidazole-5-carboxylate], the EC50 (commonly the midpoint of the concentration-response curve) was determined as 300 nM.

Take `CCOC(=O)c1c(NC(=O)C(CC)c2ccccc2)nc(SC)n1-c1ccccc1` (stereo not shown) [1H-imidazole-5-carboxylic acid, 2-(methylthio)-4-[(1-oxo-2-phenylbutyl)amino]-1-phenyl-, ethyl ester]: the EC50 stood at 600 nM.

For `CCOC(=O)c1c(NC(=O)c2ccc(Cl)c(Cl)c2)nc(SC)n1Cc1ccccc1` [1H-imidazole-5-carboxylic acid, 4-[(3,4-dichlorobenzoyl)amino]-2-(methylthio)-1-(phenylmethyl)-, ethyl ester], the EC50 was determined as 2300 nM.

For `COCC(C)(C)OC(=O)c1c(NC(=O)C2COc3ccccc3O2)nc(OC)n1-c1ccccc1` (stereo not shown) [2-methoxy-1,1-dimethylethyl 4-[(2,3-dihydro-1,4-benzodioxin-2-ylcarbonyl)amino]-2-methoxy-1-phenyl-1H-imidazole-5-carboxylate], the EC50 is 300 nM.
